Measurements published in patent publication EP0726261A1, “Herbidical 1,2,4 thiadiazoles” (American Cyanamid Company, priority 1995, dated 1996).

Key:
Assay type in all cases: in vivo
Triticum aestivum [1] = assay: Preemergence herbicidal activity (Example 67); conditions: pre, 800 g/ha
Summary of the method: (§1)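 Test solutions in acetone with 0.5% TRITON X-155, diluted with water, sprayed at 800g/ha (400 L/ha) onto the soil surface of seeded cups. Cups kept under greenhouse conditions and rated on a standard scale about 1-3 weeks after treatment.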

Setaria viridis [2] = assay: Preemergence herbicidal activity (Example 67); conditions: pre, 800 g/ha
Summary of the method: as §1

Hordeum vulgare [3] = assay: Preemergence herbicidal activity (Example 67); conditions: pre, 800 g/ha
Summary of the method: as §1

Triticum aestivum [4] = assay: Postemergence herbicidal activity (Example 67); conditions: pos, 800 g/ha
Summary of the method: (§2)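 Seedlings aged 3–6 weeks received a postemergence spray of compound in acetone with 0.5% Triton X-155, diluted in water, at 800 g/ha in 400 L/ha. Plants were then kept in the greenhouse and rated 10–21 days after treatment.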

Setaria viridis [5] = assay: Postemergence herbicidal activity (Example 67); conditions: pos, 800 g/ha
Summary of the method: as §2

Galium aparine [6] = assay: Postemergence herbicidal activity (Example 67); conditions: pos, 800 g/ha
Summary of the method: as §2

Zea mays [7] = assay: Postemergence herbicidal activity (Example 67); conditions: pos, 800 g/ha
Summary of the method: as §2

Ipomoea hederacea [8] = assay: Postemergence herbicidal activity (Example 67); conditions: pos, 800 g/ha
Summary of the method: as §2

Chenopodium album [9] = assay: Postemergence herbicidal activity (Example 67); conditions: pos, 800 g/ha
Summary of the method: as §2

Veronica persica [10] = assay: Postemergence herbicidal activity (Example 67); conditions: pos, 800 g/ha
Summary of the method: as §2

Hordeum vulgare [11] = assay: Postemergence herbicidal activity (Example 67); conditions: pos, 800 g/ha
Summary of the method: as §2

Amaranthus retroflexus [12] = assay: Postemergence herbicidal activity (Example 67); conditions: pos, 800 g/ha
Summary of the method: as §2

Helianthus annuus [13] = assay: Postemergence herbicidal activity (Example 67); conditions: pos, 800 g/ha
Summary of the method: as §2

Alopecurus myosuroides [14] = assay: Postemergence herbicidal activity (Example 67); conditions: pos, 800 g/ha
Summary of the method: as §2

Abutilon theophrasti [15] = assay: Postemergence herbicidal activity (Example 67); conditions: pos, 800 g/ha
Summary of the method: as §2

Galium aparine [16] = assay: Preemergence herbicidal activity (Example 67); conditions: pre, 800 g/ha
Summary of the method: as §1

Zea mays [17] = assay: Preemergence herbicidal activity (Example 67); conditions: pre, 800 g/ha
Summary of the method: as §1

Ipomoea hederacea [18] = assay: Preemergence herbicidal activity (Example 67); conditions: pre, 800 g/ha
Summary of the method: as §1

Chenopodium album [19] = assay: Preemergence herbicidal activity (Example 67); conditions: pre, 800 g/ha
Summary of the method: as §1

Veronica persica [20] = assay: Preemergence herbicidal activity (Example 67); conditions: pre, 800 g/ha
Summary of the method: as §1

Amaranthus retroflexus [21] = assay: Preemergence herbicidal activity (Example 67); conditions: pre, 800 g/ha
Summary of the method: as §1

Helianthus annuus [22] = assay: Preemergence herbicidal activity (Example 67); conditions: pre, 800 g/ha
Summary of the method: as §1

Abutilon theophrasti [23] = assay: Preemergence herbicidal activity (Example 67); conditions: pre, 800 g/ha
Summary of the method: as §1

Alopecurus myosuroides [24] = assay: Preemergence herbicidal activity (Example 67); conditions: pre, 800 g/ha
Summary of the method: as §1

SMILES | TRZ AW rating (Triticum aestivum [1]) | SET VI rating (Setaria viridis [2]) | HOR VW rating (Hordeum vulgare [3]) | TRZ AW rating (Triticum aestivum [4]) | SET VI rating (Setaria viridis [5]) | GAL AP rating (Galium aparine [6]) | ZEA MX rating (Zea mays [7]) | IPO HE rating (Ipomoea hederacea [8]) | CHE AL rating (Chenopodium album [9]) | VER PE rating (Veronica persica [10]) | HOR VW rating (Hordeum vulgare [11]) | AMA RE rating (Amaranthus retroflexus [12]) | HEL AN rating (Helianthus annuus [13]) | ALO MY rating (Alopecurus myosuroides [14]) | ABU TH rating (Abutilon theophrasti [15]) | GAL AP rating (Galium aparine [16]) | ZEA MX rating (Zea mays [17]) | IPO HE rating (Ipomoea hederacea [18]) | CHE AL rating (Chenopodium album [19]) | VER PE rating (Veronica persica [20]) | further results
COc1ccc(-c2nc(C(=O)NC(C)c3cccs3)ns2)cc1 (racemic) [Example 51, (R/S)-5-(4-Methoxyphenyl)-[1,2,4]thiadiazole-3-carboxylic acid, [1-(2-thienyl)ethyl]amide] | 2 (6-15%) | 0 | 2 (6-15%) | 3 (16-29%) | 8 (91-99%) | 6 (65-79%) | 5 (45-64%) | 8 (91-99%) | 4 (30-44%) | 8 (91-99%) | 5 (45-64%) | 4 (30-44%) | 8 (91-99%) | 5 (45-64%) | 6 (65-79%) | 0 | 0 | 0 | 0 | 0 | AMA RE rating (Amaranthus retroflexus [21]): 5 (45-64%); HEL AN rating (Helianthus annuus [22]): 1 (1-5%); ABU TH rating (Abutilon theophrasti [23]): 3 (16-29%); ALO MY rating (Alopecurus myosuroides [24]): 3 (16-29%)
CC(NC(=O)c1nc(-c2cccc(F)c2)ns1)c1cccs1 (racemic) [Example 43] | 0 | 0 | 0 | 2 (6-15%) | 3 (16-29%) | 2 (6-15%) | 0 | 2 (6-15%) | 4 (30-44%) | 2 (6-15%) | 2 (6-15%) | 0 | 3 (16-29%) | 1 (1-5%) | 1 (1-5%) | 2 (6-15%) | 0 | 2 (6-15%) | 4 (30-44%) | 2 (6-15%) | AMA RE rating (Amaranthus retroflexus [21]): 0; HEL AN rating (Helianthus annuus [22]): 0; ABU TH rating (Abutilon theophrasti [23]): 0; ALO MY rating (Alopecurus myosuroides [24]): 0
O=C(Nc1cccc(F)c1)c1nsc(-c2cccc(C(F)(F)F)c2)n1 [Example 65] | 2 (6-15%) | 0 | 0 | 3 (16-29%) | 0 | 0 | 0 | 1 (1-5%) | 0 | 0 | 1 (1-5%) | 0 | 0 | 1 (1-5%) | 0 | 0 | 0 | 3 (16-29%) | 1 (1-5%) | 0 | AMA RE rating (Amaranthus retroflexus [21]): 0; HEL AN rating (Helianthus annuus [22]): 0; ABU TH rating (Abutilon theophrasti [23]): 3 (16-29%); ALO MY rating (Alopecurus myosuroides [24]): 4 (30-44%)
COc1ccc(-c2nsc(C(=O)NC3CCCc4ccccc43)n2)cc1 (racemic) [Example 54] | 0 | 0 | 0 | 1 (1-5%) | 3 (16-29%) | 3 (16-29%) | 4 (30-44%) | 2 (6-15%) | 2 (6-15%) | 0 | 3 (16-29%) | 0 | 4 (30-44%) | 2 (6-15%) | 2 (6-15%) | 0 | 0 | 0 | 0 | 0 | AMA RE rating (Amaranthus retroflexus [21]): 0; HEL AN rating (Helianthus annuus [22]): 0; ABU TH rating (Abutilon theophrasti [23]): 0; ALO MY rating (Alopecurus myosuroides [24]): 0
C[C@H](NC(=O)c1nsc(-c2ccc(F)cc2)n1)c1ccccc1 [Example 40, (S)-5-(4-Fluorophenyl)-[1,2,4]thiadiazole-3-carboxylic acid, 1-(phenylethyl)amide] | 0 | 4 (30-44%) | 0 | 4 (30-44%) | 9 (100% effect) | 8 (91-99%) | 5 (45-64%) | 8 (91-99%) | 8 (91-99%) | 8 (91-99%) | 6 (65-79%) | 8 (91-99%) | 9 (100% effect) | 5 (45-64%) | 8 (91-99%) | 0 | 0 | 0 | 4 (30-44%) | 5 (45-64%) | AMA RE rating (Amaranthus retroflexus [21]): 0; HEL AN rating (Helianthus annuus [22]): 4 (30-44%); ABU TH rating (Abutilon theophrasti [23]): 8 (91-99%); ALO MY rating (Alopecurus myosuroides [24]): 0
C[C@H](NC(=O)c1nsc(-c2ccccc2F)n1)c1ccccc1 [Example 56, (S)-5-(2-Fluorophenyl)-[1,2,4]thiadiazole-3-carboxylic acid, 1-(phenylethyl)amide] | 0 | 2 (6-15%) | 0 | 5 (45-64%) | 8 (91-99%) | 6 (65-79%) | 4 (30-44%) | 8 (91-99%) | 4 (30-44%) | 7 (80-90%) | 5 (45-64%) | 7 (80-90%) | 8 (91-99%) | 5 (45-64%) | 9 (100% effect) | 0 | 0 | 3 (16-29%) | 2 (6-15%) | 4 (30-44%) | AMA RE rating (Amaranthus retroflexus [21]): 5 (45-64%); HEL AN rating (Helianthus annuus [22]): 0; ABU TH rating (Abutilon theophrasti [23]): 2 (6-15%); ALO MY rating (Alopecurus myosuroides [24]): 0
